In brackets after ≈: the same amount, converted by molar mass.
Tested on: S. aureus 29213
Experiment: Bacterial growth minimal inhibitory concentrations (microdilution, cation-adjusted Mueller-Hinton Broth, CLSI M7-A7)
Format: cell-based
Settings: Staphylococcus aureus, 29213; microdilution in cation-adjusted Mueller-Hinton Broth
Protocol: Bacterial Growth Minimal Inhibitory Concentrations: Minimal inhibitory concentrations (MICs; mg/l) were determined in cation-adjusted MuellerHinton Broth by a microdilution method following the description given in “Methods for Dilution Antimicrobial Susceptibility Tests for Bacteria that Grow Aerobically”, Approved standard, 7th ed., Clinical and Laboratory Standards Institute (CLSI) Document M7-A7, Wayne, Pa., USA, 2006. Typical antibacterial test results are given in Table 1 hereafter (MIC in mg/l).

| MIC | Structure (SMILES) |
| --- | --- |
| 0.063 µg/mL (≈ 0.135 µM) | Cc1ccc2[nH]c(=O)n(CCC[C@@H]3CN(c4ccc5c(c4)NC(=O)CS5)C(=O)O3)c(=O)c2c1 [Example 10, 6-methyl-3-{3-[(R)-2-oxo-3-(3-oxo-3,4-dihydro-2H-benzo[1,4]thiazin-6-yl)-oxazolidin-5-yl]-propyl}-1H-quinazoline-2,4-dione] |
| 0.031 µg/mL (≈ 0.0617 µM) | O=C1CSc2ccc(N3C[C@H](CCCn4c(=O)[nH]c5cc6ccccc6cc5c4=O)OC3=O)cc2N1 [Example 42, 3-{3-[(S)-2-oxo-3-(3-oxo-3,4-dihydro-2H-benzo[1,4]-thiazin-6-yl)-oxazolidin-5-yl]-propyl}-1H-benzo[g]quinazoline-2,4-dione] |
| ≤ 0.016 µg/mL | Cc1cccc2[nH]c(=O)n(CCC[C@@H]3CN(c4ccc5c(c4)NC(=O)CS5)C(=O)O3)c(=O)c12 [Example 5, 5-methyl-3-{3-[(R)-2-oxo-3-(3-oxo-3,4-dihydro-2H-benzo[1,4]-thiazin-6-yl)-oxazolidin-5-yl]-propyl}-1H-quinazoline-2,4-dione] |
| 0.031 µg/mL (≈ 0.0637 µM) | O=C1CSc2ccc(N3C[C@@H](CCCn4c(=O)[nH]c5cccc(Cl)c5c4=O)OC3=O)cc2N1 [Example 16, 5-chloro-3-{3-[(R)-2-oxo-3-(3-oxo-3,4-dihydro-2H-benzo[1,4]thiazin-6-yl)-oxazolidin-5-yl]-propyl}-1H-quinazoline-2,4-dione] |
| 0.125 µg/mL (≈ 0.221 µM) | COC(=O)/C=C/c1ccc2c(=O)n(CCNC[C@H]3CN(c4ccc5c(c4)NC(=O)CS5)C(=O)O3)c(=O)n(C)c2c1 [Example 65, (E)-3-[1-methyl-2,4-dioxo-3-(2-{[(S)-2-oxo-3-(3-oxo-3,4-dihydro-2H-benzo[1,4]thiazin-6-yl)-oxazolidin-5-ylmethyl]-amino}-ethyl)-1,2,3,4-tetrahydro-quinazolin-7-yl]-acrylic acid methyl ester] |
| ≤ 0.016 µg/mL | Cn1c(=O)n(CCCC[C@@H]2CN(c3ccc4c(n3)NC(=O)CS4)C(=O)O2)c(=O)c2ccccc21 [Example 51, 1-methyl-3-{4-[(R)-2-oxo-3-(3-oxo-3,4-dihydro-2H-pyrido[3,2-b][1,4]thiazin-6-yl)-oxazolidin-5-yl]-butyl}-1H-quinazoline-2,4-dione] |
| 0.125 µg/mL (≈ 0.265 µM) | O=C1COc2ccc(N3C[C@@H](CCCn4c(=O)[nH]c5cccc(Cl)c5c4=O)OC3=O)nc2N1 [Example 20, 5-chloro-3-{3-[(R)-2-oxo-3-(3-oxo-3,4-dihydro-2H-pyrido[3,2-b][1,4]oxazin-6-yl)-oxazolidin-5-yl]-propyl}-1H-quinazoline-2,4-dione] |
| ≤ 0.016 µg/mL | Cn1c(=O)n(CCC[C@@H]2CN(c3ccc4c(c3)NC(=O)CS4)C(=O)O2)c(=O)c2ccc(Br)cc21 [Example 46, 7-bromo-1-methyl-3-{3-[(R)-2-oxo-3-(3-oxo-3,4-dihydro-2H-benzo[1,4]thiazin-6-yl)-oxazolidin-5-yl]-propyl}-1H-quinazoline-2,4-dione] |
| 0.063 µg/mL (≈ 0.135 µM) | Cc1ccc2c(=O)n(CCC[C@@H]3CN(c4ccc5c(c4)NC(=O)CS5)C(=O)O3)c(=O)[nH]c2c1 [Example 11, 7-methyl-3-{3-[(R)-2-oxo-3-(3-oxo-3,4-dihydro-2H-benzo[1,4]-thiazin-6-yl)-oxazolidin-5-yl]-propyl}-1H-quinazoline-2,4-dione] |
| 0.25 µg/mL (≈ 0.498 µM) | O=C1CSc2ccc(N3C[C@@H](CNCCn4c(=O)[nH]c5c(Cl)cccc5c4=O)OC3=O)cc2N1 [Example 64, 8-chloro-3-(2-{[(R)-2-oxo-3-(3-oxo-3,4-dihydro-2H-benzo[1,4]thiazin-6-yl)-oxazolidin-5-ylmethyl]-amino}-ethyl)-1H-quinazoline-2,4-dione] |
| ≤ 0.016 µg/mL | Cn1c(=O)n(CCNC[C@@H]2CN(c3ccc4c(c3)NC(=O)CS4)C(=O)O2)c(=O)c2cccc(Cl)c21 [Example 61, 8-chloro-1-methyl-3-(2-{[(R)-2-oxo-3-(3-oxo-3,4-dihydro-2H-benzo[1,4]thiazin-6-yl)-oxazolidin-5-ylmethyl]-amino}-ethyl)-1H-quinazoline-2,4-dione] |
| 0.25 µg/mL (≈ 0.519 µM) | Cc1cccc2c(=O)n(CCNC[C@@H]3CN(c4ccc5c(c4)NC(=O)CS5)C(=O)O3)c(=O)[nH]c12 [Example 60, 8-methyl-3-(2-{[(R)-2-oxo-3-(3-oxo-3,4-dihydro-2H-benzo[1,4]thiazin-6-yl)-oxazolidin-5-ylmethyl]-amino}-ethyl)-1H-quinazoline-2,4-dione] |
| ≤ 0.25 µg/mL | CCCn1c(=O)n(CCC[C@@H]2CN(c3ccc4c(c3)NC(=O)CS4)C(=O)O2)c(=O)c2ccccc21 [Example 4, 3-{3-[(R)-2-oxo-3-(3-oxo-3,4-dihydro-2H-benzo[1,4]-thiazin-6-yl)-oxazolidin-5-yl]-propyl}-1-propyl-1H-quinazoline-2,4-dione] |
| 0.125 µg/mL (≈ 0.236 µM) | Cn1c(=O)n(CCNCC[C@@H]2CN(c3ccc4c(c3)NC(=O)CS4)C(=O)O2)c(=O)c2cccc(Cl)c21 [Example 30, 8-chloro-1-methyl-3-(2-{2-[(R)-2-oxo-3-(3-oxo-3,4-dihydro-2H-benzo[1,4]thiazin-6-yl)-oxazolidin-5-yl]-ethylamino}-ethyl)-1H-quinazoline-2,4-dione] |
| 0.125 µg/mL (≈ 0.259 µM) | COc1cccc2[nH]c(=O)n(CCC[C@@H]3CN(c4ccc5c(c4)NC(=O)CS5)C(=O)O3)c(=O)c12 [Example 33, 5-methoxy-3-{3-[(R)-2-oxo-3-(3-oxo-3,4-dihydro-2H-benzo[1,4]-thiazin-6-yl)-oxazolidin-5-yl]-propyl}-1H-quinazoline-2,4-dione] |
| ≤ 0.016 µg/mL | O=C1CSc2ccc(N3C[C@H](CCCn4c(=O)[nH]c5c(Cl)ccc(Cl)c5c4=O)OC3=O)cc2N1 [Example 40, 5,8-dichloro-3-{3-[(S)-2-oxo-3-(3-oxo-3,4-dihydro-2H-benzo[1,4]thiazin-6-yl)-oxazolidin-5-yl]-propyl}-1H-quinazoline-2,4-dione] |
| 0.125 µg/mL (≈ 0.259 µM) | COc1ccc2c(=O)n(CCC[C@H]3CN(c4ccc5c(c4)NC(=O)CS5)C(=O)O3)c(=O)[nH]c2c1 [Example 35, 7-methoxy-3-{3-[(S)-2-oxo-3-(3-oxo-3,4-dihydro-2H-benzo[1,4]-thiazin-6-yl)-oxazolidin-5-yl]-propyl}-1H-quinazoline-2,4-dione] |
| 0.063 µg/mL (≈ 0.129 µM) | O=C1CSc2ccc(N3C[C@@H](CCCn4c(=O)[nH]c5cc(F)c(F)cc5c4=O)OC3=O)cc2N1 [Example 38, 6,7-difluoro-3-{3-[(R)-2-oxo-3-(3-oxo-3,4-dihydro-2H-benzo[1,4]thiazin-6-yl)-oxazolidin-5-yl]-propyl}-1H-quinazoline-2,4-dione] |
| ≤ 0.016 µg/mL | O=C1CSc2ccc(N3C[C@H](CCCn4c(=O)[nH]c5c(Cl)cccc5c4=O)OC3=O)cc2N1 [Example 29, 8-chloro-3-{3-[(S)-2-oxo-3-(3-oxo-3,4-dihydro-2H-benzo[1,4]-thiazin-6-yl)-oxazolidin-5-yl]-propyl}-1H-quinazoline-2,4-dione] |
| 0.063 µg/mL (≈ 0.128 µM) | C=Cc1ccc2c(=O)n(CCC[C@@H]3CN(c4ccc5c(c4)NC(=O)CS5)C(=O)O3)c(=O)n(C)c2c1 [Example 47, 1-methyl-3-{3-[(R)-2-oxo-3-(3-oxo-3,4-dihydro-2H-benzo[1,4]-thiazin-6-yl)-oxazolidin-5-yl]-propyl}-7-vinyl-1H-quinazoline-2,4-dione] |
| ≤ 0.016 µg/mL | Cc1cccc2c(=O)n(CCC[C@@H]3CN(c4ccc5c(c4)NC(=O)CS5)C(=O)O3)c(=O)[nH]c12 [Example 12, 8-methyl-3-{3-[(R)-2-oxo-3-(3-oxo-3,4-dihydro-2H-benzo[1,4]-thiazin-6-yl)-oxazolidin-5-yl]-propyl}-1H-quinazoline-2,4-dione] |
| 0.125 µg/mL (≈ 0.26 µM) | Cn1c(=O)n(CCNC[C@@H]2CN(c3ccc4c(c3)NC(=O)CS4)C(=O)O2)c(=O)c2ccccc21 [Example 56, 1-methyl-3-(2-{[(R)-2-oxo-3-(3-oxo-3,4-dihydro-2H-benzo[1,4]thiazin-6-yl)-oxazolidin-5-ylmethyl]-amino}-ethyl)-1H-quinazoline-2,4-dione] |
| 0.031 µg/mL (≈ 0.0664 µM) | O=C1CSc2ccc(N3CC(CCCCn4c(=O)[nH]c5ccccc5c4=O)OC3=O)cc2N1 (racemic) [Example 48, rac-3-{4-[2-oxo-3-(3-oxo-3,4-dihydro-2H-benzo[1,4]thiazin-6-yl)-oxazolidin-5-yl]-butyl}-1H-quinazoline-2,4-dione] |
| ≤ 0.016 µg/mL | Cn1c(=O)n(CCC[C@H]2CN(c3ccc4c(n3)NC(=O)CS4)C(=O)O2)c(=O)c2ccccc21 [Example 2, 1-methyl-3-{3-[(S)-2-oxo-3-(3-oxo-3,4-dihydro-2H-pyrido[3,2-b][1,4]thiazin-6-yl)-oxazolidin-5-yl]-propyl}-1H-quinazoline-2,4-dione] |
| 0.25 µg/mL (≈ 0.477 µM) | CC(=O)N(CCn1c(=O)c2ccccc2n(C)c1=O)C[C@@H]1CN(c2ccc3c(n2)NC(=O)CS3)C(=O)O1 [Example 68, N-[2-(1-methyl-2,4-dioxo-1,4-dihydro-2H-quinazolin-3-yl)-ethyl]-N-[(R)-2-oxo-3-(3-oxo-3,4-dihydro-2H-pyrido[3,2-b][1,4]thiazin-6-yl)-oxazolidin-5-ylmethyl]-acetamide] |
| ≤ 0.016 µg/mL | Cc1cccc2c(=O)n(CCC[C@H]3CN(c4ccc5c(c4)NC(=O)CS5)C(=O)O3)c(=O)[nH]c12 [Example 13, 8-methyl-3-{3-[(S)-2-oxo-3-(3-oxo-3,4-dihydro-2H-benzo[1,4]thiazin-6-yl)-oxazolidin-5-yl]-propyl}-1H-quinazoline-2,4-dione] |
| 0.25 µg/mL (≈ 0.508 µM) | O=C1CSc2ccc(N3C[C@@H](CCCn4c(=O)c5cccc6c5n(c4=O)CCC6)OC3=O)cc2N1 [Example 41, 2-{3-[(R)-2-oxo-3-(3-oxo-3,4-dihydro-2H-benzo[1,4]thiazin-6-yl)-oxazolidin-5-yl]-propyl}-6,7-dihydro-5H-pyrido[3,2,1-ij]quinazoline-1,3-dione] |
| ≤ 0.016 µg/mL | Cc1cccc2c1c(=O)n(CCNC[C@@H]1CN(c3ccc4c(c3)NC(=O)CS4)C(=O)O1)c(=O)n2C [Example 57, 1,5-dimethyl-3-(2-{[(R)-2-oxo-3-(3-oxo-3,4-dihydro-2H-benzo[1,4]thiazin-6-yl)-oxazolidin-5-ylmethyl]-amino}-ethyl)-1H-quinazoline-2,4-dione] |

From US8916573B2, “Quinazoline-2,4-dione derivatives” (Actelion Pharmaceuticals Ltd., priority 2011, dated 2014)
